From PubChem BioAssay (NCI)
“And” between values parts separate entries of the source, which are not always exact repeats. Identical values can stand only once.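 Dose response: 5 concentrations. Exposure: 48 h. Format: 96-well plates. Endpoint: linear interpolation; highest concentration if not reached. GI50: concentration for 50% inhibition of growth. Definition used: TGI = concentration required for complete inhibition of growth.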

Legend:
Assay in all cases: DTP human tumour cell line panel, 48 h
U251 CNS = test system: U251 CNS
SK-OV-3 ovarian = test system: SK-OV-3 ovarian
HL-60(TB) leukemia = test system: HL-60(TB) leukemia
LOX IMVI melanoma = test system: LOX IMVI melanoma
SR leukemia = test system: SR leukemia
M14 melanoma = test system: M14 melanoma
EKVX NSCLC = test system: EKVX NSCLC
TK-10 renal = test system: TK-10 renal
KM12 colon = test system: KM12 colon
NCI-H460 lung = test system: NCI-H460 lung

| SMILES | GI50 (U251 CNS) [µM] | TGI (U251 CNS) | TGI (SK-OV-3 ovarian) [µM] | GI50 (HL-60(TB) leukemia) [µM] | TGI (HL-60(TB) leukemia) [µM] | GI50 (LOX IMVI melanoma) [µM] | TGI (LOX IMVI melanoma) | GI50 (SR leukemia) [µM] | TGI (SR leukemia) | GI50 (M14 melanoma) [µM] | TGI (M14 melanoma) | GI50 (EKVX NSCLC) | TGI (EKVX NSCLC) [µM] | GI50 (TK-10 renal) [µM] | TGI (TK-10 renal) [µM] | GI50 (KM12 colon) [µM] | TGI (KM12 colon) [µM] | GI50 (NCI-H460 lung) [µM] | TGI (NCI-H460 lung) [µM] | GI50 (SK-OV-3 ovarian) |
| --- | --- | --- | --- | --- | --- | --- | --- | --- | --- | --- | --- | --- | --- | --- | --- | --- | --- | --- | --- | --- |
| C=C1C[C@@H]2CC[C@@]34C[C@H]5O[C@H]6[C@@H](O3)[C@H]3O[C@H](CC[C@@H]3O[C@H]6[C@@H]5O4)CC(=O)C[C@@H]3[C@@H](OC)[C@@H](C[C@H](O)CN)O[C@H]3C[C@H]3O[C@@H](CC[C@@H]1O2)C[C@@H](C)C3=C | < 0.01 | > 100 µM | > 100 | < 0.01 | < 0.0145 | < 0.01 | 0.99 µM | < 0.01 | > 100 µM | < 0.0106 | > 81.9 µM | < 0.01 µM | > 100 | 13.9 | > 100 | < 0.01 | > 100 | < 0.01 | > 100 |  |
| O=c1c(F)cn(Cc2ccccc2CCl)c(=O)n1Cc1ccccc1CCl | 1.55 | 3.49 µM | 15.1 | 1.51 | 3.63 | 1.23 | 2.78 µM | 0.796 | 3.07 µM | 1.69 | 4.05 µM | 3.07 µM | 9.22 | 2.15 | 5.44 | 1.74 | 3.68 | 2.08 | 4.9 | 5.88 µM |
| CCC(=O)Nc1nc2c(ncn2C2OC(COC(=O)CC)C(OC(=O)CC)C2OC(=O)CC)c(=O)[nH]1 (stereo unspecified) |  | > 100 µM | > 100 |  | > 100 |  | > 100 µM |  | > 100 µM |  | > 100 µM |  | > 100 |  |  |  | > 100 |  | > 100 |  |
| O=[N+]([O-])c1ccc(-c2ccc(-c3csc(Nc4ccccc4)n3)o2)cc1 |  | 41.5 µM | > 100 |  | 13.5 |  | 34.8 µM |  | 4.76 µM |  | 38 µM |  | 33.5 |  | 33.3 |  | 38.3 |  | > 67 |  |
| Cc1ccccc1NC(=O)C1C(=O)N(c2ccccc2C)C(=O)/C1=N\NC(N)=S (stereo unspecified) |  | > 100 µM | > 100 |  | > 100 |  | > 100 µM |  | > 100 µM |  | > 100 µM |  | > 100 |  | > 100 |  | > 100 |  |  |  |
| CC(NC(=O)N(C)C)NC(=O)N(C)C |  | > 10 µM | > 10 |  | > 10 |  | > 10 µM |  | > 10 µM |  | > 10 µM |  | > 10 |  | > 10 |  | > 10 |  | > 10 |  |
| CC(=O)N1CCC2(c3ccccc3N(C(C)=O)C2c2ccc(O)cc2)C1C(=O)O (stereo unspecified) |  | > 100 µM | > 100 |  | > 100 |  | > 100 µM |  | > 100 µM |  | > 100 µM |  | > 100 |  | > 100 |  | > 100 |  |  |  |
| CCOC(=O)C1SC(=Nc2ccc(Cl)cc2)N=C1C (stereo unspecified) |  | 35.2 µM |  |  | 55.9 |  | 32.5 µM |  | […] |  |  |  | 45.2 |  | 64.4 |  | 36.1 |  | 45.1 |  |
| O=[N+]([O-])c1ccc(Sc2c3ccccc3nc3cc(Cl)ccc23)cc1 | > 100 | > 100 µM | > 100 |  | > 100 | > 100 | > 100 µM |  | 68.1 µM | > 100 | > 100 µM | > 100 µM | > 100 | > 100 | > 100 | > 100 | > 100 | > 100 | > 100 | > 100 µM |
| CCNC(=O)c1noc(-c2cc(C(C)C)c(O)cc2O)c1-c1ccc(CN2CCOCC2)cc1 | < 0.0131 | 15.5 µM | 22.3 | 0.024 | 1.17 | 0.0159 | 0.0765 µM | 0.0407 | 29 µM | 0.0384 | 18.6 µM | 5.21 µM | > 100 | 0.0233 | 14.8 | 0.0203 | 0.0741 | < 0.0152 | 14.6 | < 0.01 µM |
| CN(C)C(=O)O[C@H]1CN[C@H](C#Cc2cc3ncnc(Nc4ccc(OCc5cccc(F)c5)c(Cl)c4)c3s2)C1 | 14.7 | > 25 µM | > 25 | 5.22 | 15 | > 23.2 | > 25 µM | 5.86 | > 25 µM | > 25 | > 25 µM | 1.77 µM | > 23 | 0.765 | > 17.4 | 7.37 | > 25 | 7.25 | > 25 | 0.102 µM |
| CSC(=S)N/N=C/c1nccc2ccccc12 |  | 6.99 µM | 29.8 |  | 6.69 |  | 13.1 µM |  | 18.8 µM |  | 4.87 µM |  | 12.8 |  | 62.9 |  | 15.6 |  | 6.12 |  |
| O=c1oc2ccc(I)cc2c(=O)n1-c1ccc(Cl)cc1F | 1.51 | 24.5 µM |  | 1.37 | 7.51 | 1.33 | 11.4 µM | 1.13 | > 100 µM | 0.598 | 7.87 µM | 1.53 µM | 8.77 | 4.09 | 16.9 | 2.22 | 5.39 | 0.89 | 13.1 |  |
| c1ccc(N2N=C(c3ccco3)CC2c2ccco2)cc1 (stereo unspecified) |  | > 100 µM |  |  | 73.4 |  | > 100 µM |  | > 100 µM |  | > 100 µM |  | > 100 |  | > 100 |  | > 100 |  | > 100 |  |
| O=S(=O)(CCCl)c1ccc(Cl)cc1 | 10.1 | 27.5 µM | 98.1 | 2.36 | 9.79 | 1.91 | 5.1 µM | 3.41 | > 100 µM | 5.18 | 22.2 µM |  |  | 2.32 | 6.44 | 12.9 | 31.4 | 6.4 | 24 | 11.7 µM |
| CC(C)(C)c1cc(C=C(C#N)C#N)cc(C(C)(C)C)c1O | 0.359 | 23.1 µM and 11.5 µM |  |  | 2.48 | 0.375 | 3.92 µM and 10.8 µM | 0.318 | 12.6 µM and 11 µM | 0.533 | 12.1 µM and 10.7 µM | 0.518 µM and 0.825 µM | 46.3 | 0.336 |  |  |  | 0.305 | 21.9 | 0.229 µM and 0.302 µM |
| CC1(C)CC2C(=O)c3ccccc3NC2c2ccccc21 (stereo unspecified) |  | > 100 µM |  |  | 32.6 |  | > 100 µM |  | > 100 µM |  | > 100 µM |  | > 100 |  | > 100 |  | > 81.3 |  | > 100 |  |
